Assay type in all cases: in vivo
The subject of one assay is Erysiphe graminis. Briefly: Powdery Mildew of Wheat (Erysiphe graminis--ERYSGT). The note with it: wheat (cultivar Monon), 100 ppm spray to run off, inoculated after 24 hours; for pest or weed control at 100 ppm: Blumeria graminis, 1DP, read-out: control of plant disease, ERYSGT 1DP. As for the experimental part: (§1) Compound Formulation: Compound formulation was accomplished by dissolving technical materials in acetone, with serial dilutions then made in acetone to obtain desired rates. Final treatment volumes were obtained by adding nine volumes 0.05% aqueous Tween-20 or Triton X-100, depending upon the pathogen.
Powdery Mildew of Wheat (Erysiphe graminis--ERYSGT): Wheat (cultivar Monon) was grown in a soilless peat-based potting mixture (Metromix) until the seedlings were 1-2 leaf (BBCH 12). These plants were then sprayed to run off with the test compound at a rate of 100 ppm. After 24 hours the test plants were inoculated with Erysiphe graminis by dusting spores from stock plants onto the test plants. The plants were then transferred to the greenhouse until disease developed on the untreated control plants.
(§2) the following table presents the activity of typical compounds of the present invention when evaluated in these experiments. The effectiveness of the test compounds in controlling disease was rated using the following scale: […]

The next assay deals with Leptosphaeria nodorum. Briefly: Glume blotch of wheat (Leptosphaeria nodorum--LEPTNO). The note with it: wheat (cultivar Monon), 100 ppm spray to run off, inoculated after 24 hours; for pest or weed control at 100 ppm: Parastagonospora nodorum, 1DP, read-out: control of plant disease, LEPTNO 1DP. As for the experimental part:
as §1
Glume blotch of wheat (Leptosphaeria nodorum--LEPTNO): Wheat (cultivar Monon) was grown from seed in a soilless peat-based potting mixture (Metromix) until the seedlings were 1-2 leaf (BBCH 12). These plants were then sprayed to run off with the test compound at a rate of 100 ppm. After 24 hours the test plants were inoculated with an aqueous spore suspension of Leptosphaeria nodorum. The plants were then transferred to the greenhouse until disease developed on the untreated control plants.
as §2

In the next assay the test system is Phytophthora infestans. Briefly: whole plant or invertebrate. The note with it: for pest or weed control at 100 ppm: Phytophthora infestans, 24 h, read-out: control of plant disease, PHYTIN 1DP; for control of plant disease, PHYTIN 1DP: tomatoes (cultivar Rutgers), 100 ppm spray to run off, inoculated after 24 hours.
The next assay relates to Puccinia recondita. Briefly: Brown rust (Puccinia recondita--PUCCRT). The note with it: wheat (cultivar Monon), 100 ppm spray to run off, inoculated after 24 hours; for pest or weed control at 100 ppm: Puccinia recondita, 1DP, read-out: control of plant disease, PUCCRT 1DP. The protocol: as §1
Brown rust (Puccinia recondita--PUCCRT): Wheat (cultivar Monon) was grown from seed in a soilless peat-based potting mixture (Metromix) until the seedlings were […]). These plants were then sprayed to run off with the test compound at a rate of 100 ppm. After 24 hours the test plants were inoculated with an aqueous spore suspension of Puccinia recondita. The plants were then transferred to the greenhouse until disease developed on the untreated control plants.
as §2

Consider `CNC(=O)C(=NOC)c1ccccc1COc1ncc(-c2noc(-c3cccs3)n2)cc1Cl` [Example 20], for which the pest or weed control at 100 ppm is 75 to 100% in the assay on Erysiphe graminis, 0 to 24% with Leptosphaeria nodorum, 75 to 100% in the assay with Phytophthora infestans and 75 to 100% in the assay on Puccinia recondita.

With `CNC(=O)C(=NOC)c1ccccc1COc1ncc(-c2noc(C3CC3)n2)cc1Cl` [Example 21], the pest or weed control at 100 ppm in the assay on Erysiphe graminis, in the assay with Leptosphaeria nodorum, in the assay on Phytophthora infestans and in the assay on Puccinia recondita was 75 to 100% in each case.

Turning to `CCC=Cc1nc(-c2cnc(OCc3ccccc3C(=NOC)C(=O)NC)c(Cl)c2)no1` [Example 22], the pest or weed control at 100 ppm lay in the range of 75 to 100% in the assay on Erysiphe graminis, 75 to 100% in the assay with Leptosphaeria nodorum, 0 to 24% with Phytophthora infestans and 75 to 100% in the assay on Puccinia recondita.

Regarding `CNC(=O)C(=NOC)c1ccccc1COc1ncc(-c2noc(COC)n2)cc1Cl` [Example 23], the pest or weed control at 100 ppm in the assay with Erysiphe graminis was in the range of 75 to 100%; with Leptosphaeria nodorum, 25 to 74%; in the assay on Phytophthora infestans, 0 to 24%; in the assay on Puccinia recondita, 75 to 100%.

On to `CNC(=O)C(=NOC)c1ccccc1COc1ncc(-c2noc(CSc3ccccc3)n2)cc1Cl` [Example 24], for which the pest or weed control at 100 ppm fell in the range of 0 to 24% with Erysiphe graminis, 75 to 100% in the assay with Leptosphaeria nodorum, 75 to 100% in the assay with Phytophthora infestans and 75 to 100% with Puccinia recondita.

Regarding `CNC(=O)C(=NOC)c1ccccc1COc1ccc(-c2noc(COC)n2)cn1` [Example 25], the pest or weed control at 100 ppm in the assay on Erysiphe graminis was 75 to 100%; with Leptosphaeria nodorum it was 25 to 74%; with Phytophthora infestans, 75 to 100%; with Puccinia recondita, 75 to 100%.

Take `CNC(=O)C(=NOC)c1ccccc1COc1ncc(-c2noc(CCCl)n2)cc1Cl` [Example 26]: the pest or weed control at 100 ppm in the assay with Erysiphe graminis, in the assay with Leptosphaeria nodorum, in the assay with Phytophthora infestans and with Puccinia recondita was 75 to 100% in each case.

Take `CNC(=O)C(=NOC)c1cccc(F)c1COc1ncc(-c2noc(C(C)(C)C)n2)cc1Cl` [Example 27]: the “control of plant disease, ERYSGT 1DP” value with Erysiphe graminis is given as “++ (75-100% control of plant disease)”. Further, the “control of plant disease, LEPTNO 1DP” value in the assay on Leptosphaeria nodorum is “++ (75-100% control of plant disease)”. Moreover, in the assay on Phytophthora infestans, the “control of plant disease, PHYTIN 1DP” value is “- (0-24% control of plant disease)”. For the same molecule, the “control of plant disease, PUCCRT 1DP” value in the assay with Puccinia recondita is on record as “++ (75-100% control of plant disease)”.

For the molecule `CNC(=O)C(=NOC)c1ccccc1COc1ccc(-c2noc(CSc3ccccc3)n2)cn1` [Example 28], the pest or weed control at 100 ppm with Erysiphe graminis, in the assay with Leptosphaeria nodorum, with Phytophthora infestans and with Puccinia recondita was 75 to 100% throughout.

Take `CNC(=O)C(=NOC)c1cccc(F)c1COc1ncc(-c2noc(C(F)(F)F)n2)cc1Cl` [Example 32]: the “control of plant disease, ERYSGT 1DP” value in the assay with Erysiphe graminis is “++ (75-100% control of plant disease)”. Also, the “control of plant disease, LEPTNO 1DP” value in the assay on Leptosphaeria nodorum is “+ (25-74% control of plant disease)”. For the same molecule, the “control of plant disease, PHYTIN 1DP” value with Phytophthora infestans was “- (0-24% control of plant disease)”. Further, the “control of plant disease, PUCCRT 1DP” value with Puccinia recondita is recorded as “++ (75-100% control of plant disease)”.

For `CNC(=O)C(=NOC)c1ccc(C)cc1COc1ncc(-c2noc(C(F)(F)F)n2)cc1Cl` [Example 33], the “control of plant disease, ERYSGT 1DP” value in the assay on Erysiphe graminis was “++ (75-100% control of plant disease)”. In addition, the “control of plant disease, LEPTNO 1DP” value in the assay on Leptosphaeria nodorum was “++ (75-100% control of plant disease)”. Besides, the “control of plant disease, PHYTIN 1DP” value with Phytophthora infestans is “++ (75-100% control of plant disease)”. Further, in the assay with Puccinia recondita, the “control of plant disease, PUCCRT 1DP” value was “++ (75-100% control of plant disease)”.

Turning to `CNC(=O)C(=NOC)c1cccc(Cl)c1COc1ncc(-c2noc(C(F)(F)F)n2)cc1Cl` [Example 34], the “control of plant disease, ERYSGT 1DP” value in the assay on Erysiphe graminis is listed as “++ (75-100% control of plant disease)”. Moreover, the “control of plant disease, LEPTNO 1DP” value with Leptosphaeria nodorum is “++ (75-100% control of plant disease)”. In the assay on Phytophthora infestans, the “control of plant disease, PHYTIN 1DP” value is on record as “- (0-24% control of plant disease)”. For the same molecule, the “control of plant disease, PUCCRT 1DP” value in the assay on Puccinia recondita is given as “++ (75-100% control of plant disease)”.

The record behind these values is US6133294A (priority 1999, dated 2000).
